# Literature values as cited in PMC9318694 (Molecules, 2022).
# Target: D2R (Homo sapiens, UniProt P14416)
# Details: Table S1; data set of actives, radio-ligand binding assays; ref ChEMBL, [50]-[70]; read-out: KI; cited from earlier work
# Chain of D2R (P14416 whole entry): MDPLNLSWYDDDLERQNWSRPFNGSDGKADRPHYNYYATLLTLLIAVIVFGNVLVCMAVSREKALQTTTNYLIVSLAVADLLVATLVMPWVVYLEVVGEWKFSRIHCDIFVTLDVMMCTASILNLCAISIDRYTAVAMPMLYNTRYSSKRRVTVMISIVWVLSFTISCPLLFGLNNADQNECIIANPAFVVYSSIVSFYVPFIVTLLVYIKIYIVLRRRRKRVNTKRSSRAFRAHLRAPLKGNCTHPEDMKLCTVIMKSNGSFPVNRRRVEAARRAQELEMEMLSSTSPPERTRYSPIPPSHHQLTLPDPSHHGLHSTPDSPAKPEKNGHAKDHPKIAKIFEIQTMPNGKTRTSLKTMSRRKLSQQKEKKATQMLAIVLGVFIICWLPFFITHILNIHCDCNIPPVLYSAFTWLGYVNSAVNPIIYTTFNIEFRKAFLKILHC
row,SMILES,Ki [µM]
1,"COc1ccccc1N1CCN(CCCCCNC(=O)OC(C)(C)C)CC1 [SC31, tert-butyl (5-(4-(2-methoxyphenyl)piperazin-1-yl)pentyl)carbamate]",0.012
2,"C#CC1=CC[C@H](N(CCC)CCCCNC(=O)c2cc3ccccc3s2)CC1 [SC15, (R)-N-(4-((4-ethynylcyclohex-3-en-1-yl)(propyl)amino)butyl)benzo[b]thiophene-2-carboxamide]",0.0031
3,"C#CC1=CC[C@H](N(CCC)CCCCNC(=O)c2ccc(OCCCc3cnn(CCCC)n3)c(OC)c2)CC1 [SC14, (R)-4-(3-(2-butyl-2H-1,2,3-triazol-4-yl)propoxy)-N-(4-((4-ethynylcyclohex-3-en-1-yl)(propyl)amino)butyl)-3-methoxybenzamide]",0.0042
4,"CCCN[C@@H]1Cc2cccc3c2n(c(=O)n3CCCCOCCCCc2ccccc2)C1 [SC42, (R)-1-(4-(4-phenylbutoxy)butyl)-5-(propylamino)-5,6-dihydro-4H-imidazo[4,5,1-ij]quinolin-2(1H)-one]",0.0372
5,"CN[C@@H]1Cc2cccc3c2n(c(=O)n3CCCCOc2ccc3c(c2)NC(=O)CC3)C1 [SC44, (R)-5-(methylamino)-1-(4-((2-oxo-1,2,3,4-tetrahydroquinolin-7-yl)oxy)butyl)-5,6-dihydro-4H-imidazo[4,5,1-ij]quinolin-2(1H)-one]",0.338
6,"CCCCn1cc(CCCOc2ccc(C(=O)NCCCCN(CCC)C3Cc4ccccc4C3)cc2OC)nn1 [SC3, 4-(3-(1-butyl-1H-1,2,3-triazol-4-yl)propoxy)-N-(4-((2,3-dihydro-1H-inden-2-yl)(propyl)amino)butyl)-3-methoxybenzamide]",0.012
7,"CN[C@@H]1Cc2cccc3c2n(c(=O)n3CCOCCOCCCCc2ccccc2)C1 [SC50, (R)-5-(methylamino)-1-(2-(2-(4-phenylbutoxy)ethoxy)ethyl)-5,6-dihydro-4H-imidazo[4,5,1-ij]quinolin-2(1H)-one]",0.111
8,"CCCN(CCN1CCN(c2nccc3ccccc23)CC1)[C@H]1CCc2nc(N)sc2C1 [SC56, (S)-N6-(2-(4-(isoquinolin-1-yl)piperazin-1-yl)ethyl)-N6-propyl-4,5,6,7-tetrahydrobenzo[d]thiazole-2,6-diamine]",0.269
9,"CCCN(CCC)[C@@H]1Cc2cccc3c2n(c(=O)n3CCC)C1 [SC38, (R)-5-(dipropylamino)-1-propyl-5,6-dihydro-4H-imidazo[4,5,1-ij]quinolin-2(1H)-one]",0.00259
10,"CCCN(CCN1CCN(c2cccc3ncccc23)CC1)[C@H]1CCc2nc(N)sc2C1 [SC55, (S)-N6-propyl-N6-(2-(4-(quinolin-5-yl)piperazin-1-yl)ethyl)-4,5,6,7-tetrahydrobenzo[d]thiazole-2,6-diamine]",0.0577
11,"C#CC1=CC[C@H](N(CCC)CCCCNC(=O)c2ccc(OCCCc3cn(CCCC)nn3)c(OC)c2)CO1 [SC35, (S)-4-(3-(1-butyl-1H-1,2,3-triazol-4-yl)propoxy)-N-(4-((6-ethynyl-3,4-dihydro-2H-pyran-3-yl)(propyl)amino)butyl)-3-methoxybenzamide]",0.0049
12,"Clc1cccc(N2CCN(CCCOc3ccc4scnc4c3)CC2)c1Cl [SC8, 5-(3-(4-(2,3-dichlorophenyl)piperazin-1-yl)propoxy)benzo[d]thiazole]",0.03
13,"CC(C)CCN1CCN2c3cccc4[nH]cc(c34)CC2C1 (stereo not drawn) [SC25, 8-isopentyl-6,6a,7,8,9,10-hexahydro-4H-pyrazino[1,2-a]pyrrolo[4,3,2-de]quinoline]",0.024
14,"COc1ccccc1N1CCN(CCCNC(=O)OC(C)(C)C)CC1 [SC30, tert-butyl (3-(4-(2-methoxyphenyl)piperazin-1-yl)propyl)carbamate]",0.0158

# Same assay, conditions: Table S2; data set of inactives, radio-ligand binding (RLB) assays; ref ChEMBL, [71]-[92]; read-out: KI; cited from earlier work
row,SMILES,Ki [µM]
1,"COc1cccc(CCc2ccccc2OCCCN2CCN(c3ccc(F)cc3)CC2)c1 [SC106, 1-(4-fluorophenyl)-4-[3-[2-[2-(3-methoxyphenyl)ethyl]phenoxy]propyl]piperazine]",655
2,"COc1cccc(CCc2ccccc2OCCCCCN2CCc3cc(OC)c(OC)cc3C2)c1 [SC125, 6,7-dimethoxy-2-[5-[2-[2-(3-methoxyphenyl)ethyl]phenoxy]pentyl]-3,4-dihydro-1H-isoquinoline]",> 1000
3,"c1ccc(CCC2CN(Cc3nc4ccccc4[nH]3)CCO2)cc1 (stereo not drawn) [SC127, 4-(1H-benzimidazol-2-ylmethyl)-2-(2-phenylethyl)morpholine]",> 100
4,"COc1cc2c(cc1OC)CN(C=Nc1ccc3c(c1)C1SCCSC1CC3)CC2 (stereo not drawn) [SC66, N-(2,3,4a,5,6,10b-hexahydrobenzo[f][1,4]benzodithiin-9-yl)-1-(6,7-dimethoxy-3,4-dihydro-1H-isoquinolin-2-yl)methanimine]",> 100
5,"COc1cc2c(cc1OC)CN(C=Nc1ccc3c(c1)C1SCCSC1C3)CC2 (stereo not drawn) [SC63, N-(3,4a,9,9a-tetrahydro-2H-indeno[1,2-b][1,4]dithiin-6-yl)-1-(6,7-dimethoxy-3,4-dihydro-1H-isoquinolin-2-yl)methanimine]",> 100
6,"FCCOc1ccc(N2CCN(Cc3cnn4ccccc34)CC2)cc1 [SC98, 3-[[4-[4-(2-fluoroethoxy)phenyl]piperazin-1-yl]methyl]pyrazolo[1,5-a]pyridine]",79
7,"COc1cccc(CCc2ccccc2OCCCCN2CCN(c3ccccc3OC)CC2)c1 [SC122, 1-(2-methoxyphenyl)-4-[4-[2-[2-(3-methoxyphenyl)ethyl]phenoxy]butyl]piperazine]",67
8,"COc1cccc(CCc2ccccc2OCCN2CCN(c3ncccn3)CC2)c1 [SC101, 2-[4-[2-[2-[2-(3-methoxyphenyl)ethyl]phenoxy]ethyl]piperazin-1-yl]pyrimidine]",629
9,"CCCNCCCCNC(=O)c1ccc(-c2ccccc2)cc1 [SC99, 4-phenyl-N-[4-(propylamino)butyl]benzamide]",> 100
10,"COc1cccc(CCc2ccccc2OCCCN2CCN(c3cccc(Cl)c3)CC2)c1 [SC107, 1-(3-chlorophenyl)-4-[3-[2-[2-(3-methoxyphenyl)ethyl]phenoxy]propyl]piperazine]",298
11,"COc1cccc(CCc2ccccc2OCCCCCN2CCN(c3ncccn3)CC2)c1 [SC118, 2-[4-[5-[2-[2-(3-methoxyphenyl)ethyl]phenoxy]pentyl]piperazin-1-yl]pyrimidine]",> 1000
12,"COc1ccc2[nH]c3c(c2c1)CCN=C3c1cc([N+](=O)[O-])cn1C [SC65, 6-methoxy-1-(1-methyl-4-nitropyrrol-2-yl)-4,9-dihydro-3H-pyrido[3,4-b]indole]",200
13,"OC1CCc2ccc(N=CN3CCc4ccccc4C3)cc21 (stereo not drawn) [Compound S68, 6-(3,4-dihydro-1H-isoquinolin-2-ylmethylideneamino)-2,3-dihydro-1H-inden-1-ol]",> 300

# Same assay, conditions: read-out: KI; cited from earlier work
row,SMILES,Ki [µM]
1,"C1=C(c2ccccc2)CCN(C[C@@H]2CCC=C(c3ccccc3)C2)C1 [SC32, (R)-4-phenyl-1-((2,3,4,5-tetrahydro-[1,1'-biphenyl]-3-yl)methyl)-1,2,3,6-tetrahydropyridine]",0.0084
2,"Oc1ccc(C2=CCC[C@@H](CN3CC=C(c4ccccc4)CC3)C2)cc1 [SC33, (R)-3'-((4-phenyl-3,6-dihydropyridin-1(2H)-yl)methyl)-2',3',4',5'-tetrahydro-[1,1'-biphenyl]-4-ol]",0.00062
3,"C#CC1=CC[C@H](N(CCC)CCCCNC(=O)c2cc3ccccn3n2)CC1 [SC12, (R)-N-(4-((4-ethynylcyclohex-3-en-1-yl)(propyl)amino)butyl)pyrazolo[1,5-a]pyridine-2-carboxamide]",0.0055
